# Data taken from PubChem BioAssay AID2060599 (Molecular Pharmacology Branch, DTP, NCI, 2025).
# Test system: 817829-284-R-J1-PDC complex spheroids, viability
# Test: Anticancer human tumor 817829-284-R-J1-PDC patient-derived colon adenocarcinoma cell line growth inhibition [CLK]
# Settings: for IC50: curve of first compound; for viability, T/C: stronger effect = lower value
# Outline: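 Patient-derived tumor cells grown as complex spheroids with HUVEC endothelial cells and mesenchymal stem cells, treated with drug combinations. Concentrations descend in half-log steps from near clinical Cmax, or from 10 microM if Cmax unknown.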
# [1] = second compound 0.0316 µM, first compound 0.0316 µM
# [2] = second compound 0.0316 µM, first compound 0.1 µM
# [3] = second compound 0.0316 µM, first compound 0.316 µM
# [4] = second compound 0.0316 µM, first compound 1 µM
# [5] = second compound 0.0316 µM, first compound 3.16 µM
# [6] = second compound 0.0316 µM, first compound 10 µM
# [7] = second compound 0.1 µM, first compound 0.0316 µM
# [8] = second compound 0.1 µM, first compound 0.1 µM
# [9] = second compound 0.1 µM, first compound 0.316 µM
# [10] = second compound 0.1 µM, first compound 1 µM
# [11] = second compound 0.1 µM, first compound 3.16 µM
# [12] = second compound 0.1 µM, first compound 10 µM
# [13] = second compound 0.316 µM, first compound 0.0316 µM
# [14] = second compound 0.316 µM, first compound 0.1 µM
# [15] = second compound 0.316 µM, first compound 0.316 µM
# [16] = second compound 0.316 µM, first compound 1 µM
# [17] = second compound 0.316 µM, first compound 3.16 µM
# [18] = second compound 0.316 µM, first compound 10 µM
# [19] = second compound 1 µM, first compound 0.0316 µM
# [20] = second compound 1 µM, first compound 0.1 µM
# [21] = second compound 1 µM, first compound 0.316 µM
# [22] = second compound 1 µM, first compound 1 µM
# [23] = second compound 1 µM, first compound 3.16 µM
# [24] = second compound 1 µM, first compound 10 µM
# [25] = second compound 3.16 µM, first compound 0.0316 µM
# [26] = second compound 3.16 µM, first compound 0.1 µM
# [27] = second compound 3.16 µM, first compound 0.316 µM
# [28] = second compound 3.16 µM, first compound 1 µM
# [29] = second compound 3.16 µM, first compound 3.16 µM
# [30] = second compound 3.16 µM, first compound 10 µM
# [31] = second compound 10 µM, first compound 0.0316 µM
# [32] = second compound 10 µM, first compound 0.1 µM
# [33] = second compound 10 µM, first compound 0.316 µM
# [34] = second compound 10 µM, first compound 1 µM
# [35] = second compound 10 µM, first compound 3.16 µM
# [36] = second compound 10 µM, first compound 10 µM
# 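Further: spheroids exposed to the agents for seven days before readout.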
smiles,measurement,setting,value
C=CC(=O)N1CCN(c2nc(=O)n(-c3c(C)ccnc3C(C)C)c3nc(-c4c(O)cccc4F)c(F)cc23)C(C)C1 (stereo unspecified) + CN1CCN(c2cc(C(=O)Nc3cc4cc(-c5cnn(C)c5)ccc4cn3)ccn2)CC1,IC50,second compound 0.0316 µM,3090 nM
same,IC50,second compound 0.1 µM,< 31.6 nM
same,IC50,second compound 0.316 µM,< 31.6 nM
same,IC50,second compound 1 µM,< 31.6 nM
same,IC50,second compound 3.16 µM,< 31.6 nM
same,IC50,second compound 10 µM,< 31.6 nM
same,"viability, T/C",[1],75.7%
same,"viability, T/C",[2],70.6%
same,"viability, T/C",[3],60.9%
same,"viability, T/C",[4],76.9%
same,"viability, T/C",[5],49.6%
same,"viability, T/C",[6],32.2%
same,"viability, T/C",[7],24.9%
same,"viability, T/C",[8],25.4%
same,"viability, T/C",[9],22.4%
same,"viability, T/C",[10],22.8%
same,"viability, T/C",[11],16.1%
same,"viability, T/C",[12],10.7%
same,"viability, T/C",[13],2.69%
same,"viability, T/C",[14],2.73%
same,"viability, T/C",[15],3%
same,"viability, T/C",[16],3.05%
same,"viability, T/C",[17],3.47%
same,"viability, T/C",[18],1.56%
same,"viability, T/C",[19],0.15%
same,"viability, T/C",[20],0.15%
same,"viability, T/C",[21],0.22%
same,"viability, T/C",[22],0.15%
same,"viability, T/C",[23],0.1%
same,"viability, T/C",[24],0.16%
same,"viability, T/C",[25],0.16%
same,"viability, T/C",[26],0.28%
same,"viability, T/C",[27],0.2%
same,"viability, T/C",[28],0.16%
same,"viability, T/C",[29],0.51%
same,"viability, T/C",[30],0.15%
same,"viability, T/C",[31],0.08%
same,"viability, T/C",[32],0.11%
same,"viability, T/C",[33],0.12%
same,"viability, T/C",[34],0.13%
same,"viability, T/C",[35],0.12%
same,"viability, T/C",[36],0.13%
CCCS(=O)(=O)Nc1ccc(F)c(C(=O)c2c[nH]c3ncc(-c4ccc(Cl)cc4)cc23)c1F + CNC(=O)c1ccc(Nc2nc(OC3CCCC3)c3c(-c4ccc5nc(C)oc5c4)c[nH]c3n2)c(OC)c1,IC50,second compound 0.0316 µM,< 31.6 nM
same,IC50,second compound 0.1 µM,< 31.6 nM
same,IC50,second compound 0.316 µM,< 31.6 nM
same,IC50,second compound 1 µM,< 31.6 nM
same,IC50,second compound 3.16 µM,< 31.6 nM
same,IC50,second compound 10 µM,< 31.6 nM
same,"viability, T/C",[1],31.8%
same,"viability, T/C",[2],23.5%
same,"viability, T/C",[3],33.4%
same,"viability, T/C",[4],27%
same,"viability, T/C",[5],33%
same,"viability, T/C",[6],10.1%
same,"viability, T/C",[7],19.1%
same,"viability, T/C",[8],16.2%
same,"viability, T/C",[9],16.2%
same,"viability, T/C",[10],20.5%
same,"viability, T/C",[11],21.1%
same,"viability, T/C",[12],16.3%
same,"viability, T/C",[13],38%
same,"viability, T/C",[14],22.6%
same,"viability, T/C",[15],18%
same,"viability, T/C",[16],15.2%
same,"viability, T/C",[17],18.3%
same,"viability, T/C",[18],15.7%
same,"viability, T/C",[19],17.8%
same,"viability, T/C",[20],15%
same,"viability, T/C",[21],18.6%
same,"viability, T/C",[22],12.8%
same,"viability, T/C",[23],11.6%
same,"viability, T/C",[24],6.76%
same,"viability, T/C",[25],16.4%
same,"viability, T/C",[26],15.9%
same,"viability, T/C",[27],21.2%
same,"viability, T/C",[28],22.2%
same,"viability, T/C",[29],9.76%
same,"viability, T/C",[30],12.3%
same,"viability, T/C",[31],21.7%
same,"viability, T/C",[32],17.4%
same,"viability, T/C",[33],12%
same,"viability, T/C",[34],17.2%
same,"viability, T/C",[35],9.32%
same,"viability, T/C",[36],5.05%
NC(=O)C(=Cn1cnc(-c2cc(C(F)(F)F)cc(C(F)(F)F)c2)n1)c1cncnc1 + CN1CCN(c2cc(C(=O)Nc3cc4cc(-c5cnn(C)c5)ccc4cn3)ccn2)CC1,IC50,second compound 0.0316 µM,< 9.49 nM
same,IC50,second compound 0.1 µM,< 9.49 nM
same,IC50,second compound 0.316 µM,< 9.49 nM
same,IC50,second compound 1 µM,< 9.49 nM
same,IC50,second compound 3.16 µM,< 9.49 nM
same,IC50,second compound 10 µM,< 9.49 nM
same,"viability, T/C","second compound 0.0316 µM, first compound 0.00949 µM",21.1%
same,"viability, T/C","second compound 0.0316 µM, first compound 0.03 µM",19.4%
same,"viability, T/C","second compound 0.0316 µM, first compound 0.0949 µM",8.87%
same,"viability, T/C","second compound 0.0316 µM, first compound 0.3 µM",2.37%
same,"viability, T/C","second compound 0.0316 µM, first compound 0.949 µM",1.3%
same,"viability, T/C","second compound 0.0316 µM, first compound 3 µM",0.87%
same,"viability, T/C","second compound 0.1 µM, first compound 0.00949 µM",7.2%
same,"viability, T/C","second compound 0.1 µM, first compound 0.03 µM",4.72%
same,"viability, T/C","second compound 0.1 µM, first compound 0.0949 µM",1.8%
same,"viability, T/C","second compound 0.1 µM, first compound 0.3 µM",0.15%
same,"viability, T/C","second compound 0.1 µM, first compound 0.949 µM",0.19%
same,"viability, T/C","second compound 0.1 µM, first compound 3 µM",0.22%
same,"viability, T/C","second compound 0.316 µM, first compound 0.00949 µM",0.46%
same,"viability, T/C","second compound 0.316 µM, first compound 0.03 µM",0.1%
same,"viability, T/C","second compound 0.316 µM, first compound 0.0949 µM",0.07%
same,"viability, T/C","second compound 0.316 µM, first compound 0.3 µM",0.05%
same,"viability, T/C","second compound 0.316 µM, first compound 0.949 µM",0.06%
same,"viability, T/C","second compound 0.316 µM, first compound 3 µM",0.17%
same,"viability, T/C","second compound 1 µM, first compound 0.00949 µM",0.06%
same,"viability, T/C","second compound 1 µM, first compound 0.03 µM",0.09%
same,"viability, T/C","second compound 1 µM, first compound 0.0949 µM",0.13%
same,"viability, T/C","second compound 1 µM, first compound 0.3 µM",0.1%
same,"viability, T/C","second compound 1 µM, first compound 0.949 µM",0.12%
same,"viability, T/C","second compound 1 µM, first compound 3 µM",0.29%
same,"viability, T/C","second compound 3.16 µM, first compound 0.00949 µM",0.06%
same,"viability, T/C","second compound 3.16 µM, first compound 0.03 µM",0.16%
same,"viability, T/C","second compound 3.16 µM, first compound 0.0949 µM",0.19%
same,"viability, T/C","second compound 3.16 µM, first compound 0.3 µM",0.12%
same,"viability, T/C","second compound 3.16 µM, first compound 0.949 µM",0.17%
same,"viability, T/C","second compound 3.16 µM, first compound 3 µM",0.21%
same,"viability, T/C","second compound 10 µM, first compound 0.00949 µM",0.02%
same,"viability, T/C","second compound 10 µM, first compound 0.03 µM",0.09%
same,"viability, T/C","second compound 10 µM, first compound 0.0949 µM",0.13%
same,"viability, T/C","second compound 10 µM, first compound 0.3 µM",0.1%
same,"viability, T/C","second compound 10 µM, first compound 0.949 µM",0.17%
same,"viability, T/C","second compound 10 µM, first compound 3 µM",0.11%
